The structures appear in SMILES notation.

Assay [1] deals with CtermHisTag-mEGFR Triple Mutant - C797S, L858R, T790M (Homo sapiens, UniProt P00533, C797S/L858R/T790M). The assay can be described thus: TR-FRET probe displacement assay, EGFR triple mutant. The note with it: T790M 1.25 nM, probe 100 nM, 30 mins room temperature. Type of assay: binding. A digest of the protocol: (§1)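 Ten-point compound series, 100000 to 3 nM final, tested against His-tagged EGFR (wild type or C797S/L858R/T790M) for probe displacement. TR-FRET read at Ex337 nm, Em490/520 nm; run in technical replicate, biological duplicate.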
(In general: In TR-FRET formats the signal depends on donor and acceptor labels being close together.)

The target of assay [2] is CtermHisTag-mEGFR Wild type (Homo sapiens, UniProt P00533). The experiment in a line: TR-FRET probe displacement assay, EGFR wild type. The note with it: EGFR wild type 1.25 nM, probe 100 nM, 30 mins room temperature. Type of assay: binding. Summed up:
as §1

Assay [3] has as its target T1, Phospho-EGFR (Tyr1068) in H1975 cells (Homo sapiens, UniProt P00533, L858R/T790M).
T1 construct: host or cells: H1975
The experiment in a line: HTRF pEGFR/total EGFR assay in H1975 cells. Type of assay: cell-based. To be noted: compound 3 hours, ratio pEGFR/total EGFR. Summed up: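 H1975 cells (EGFR L858R/T790M) adhered 24 h, then compound-treated for 3 h in duplicate, 0.1% DMSO final. Lysates read by HTRF at 665/620 nm for phospho-Tyr1068 and total EGFR. Value is pEGFR/total EGFR ratio as % of 0 uM control.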

Assay [4] concerns the target T2, Phospho-EGFR (Tyr1068) in H1975 C797S cells (Homo sapiens, UniProt P00533, C797S/L858R/T790M).
T2 construct: endogenous in cells; host or cells: H1975 C797S (CRISPR-edited in house from ATCC CRL-5908)
The experiment in a line: HTRF pEGFR/total EGFR assay in H1975 C797S cells. Type of assay: cell-based. To be noted: H1975 C797S cells (CRISPR), compound 3 hours, ratio pEGFR/total EGFR. A digest of the protocol: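 H1975 cells carrying CRISPR-engineered EGFR C797S (with L858R/T790M) were exposed to compounds for 3 h at 0.1% DMSO, in duplicate. Lysates were read with HTRF kits for pEGFR Tyr1068 and total EGFR at 665/620 nm. Values are the pEGFR/total EGFR ratio as percent of the 0 uM control.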

For assay [5], the target named is T3, Phospho-EGFR (Tyr1068) in A431 cells (Homo sapiens, UniProt P00533).
T3 construct: endogenous in cells; host or cells: A431
The assay can be described thus: HTRF pEGFR/total EGFR assay in A431 cells (EGF stimulated). Type of assay: cell-based. To be noted: compound 2.5 hours then 100 ng/ml EGF 30 mins, ratio pEGFR/total EGFR. Summed up:
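A431 cells pretreated with compounds 2.5 h (0.1% DMSO), then stimulated with 100 ng/ml EGF for 30 min. Lysates assayed by HTRF for phospho-EGFR (Tyr1068) and total EGFR, read at 665/620 nm. Values are pEGFR/total EGFR ratio as percentage of 0uM control.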

Sequence of CtermHisTag-mEGFR Wild type (P00533 25-1210): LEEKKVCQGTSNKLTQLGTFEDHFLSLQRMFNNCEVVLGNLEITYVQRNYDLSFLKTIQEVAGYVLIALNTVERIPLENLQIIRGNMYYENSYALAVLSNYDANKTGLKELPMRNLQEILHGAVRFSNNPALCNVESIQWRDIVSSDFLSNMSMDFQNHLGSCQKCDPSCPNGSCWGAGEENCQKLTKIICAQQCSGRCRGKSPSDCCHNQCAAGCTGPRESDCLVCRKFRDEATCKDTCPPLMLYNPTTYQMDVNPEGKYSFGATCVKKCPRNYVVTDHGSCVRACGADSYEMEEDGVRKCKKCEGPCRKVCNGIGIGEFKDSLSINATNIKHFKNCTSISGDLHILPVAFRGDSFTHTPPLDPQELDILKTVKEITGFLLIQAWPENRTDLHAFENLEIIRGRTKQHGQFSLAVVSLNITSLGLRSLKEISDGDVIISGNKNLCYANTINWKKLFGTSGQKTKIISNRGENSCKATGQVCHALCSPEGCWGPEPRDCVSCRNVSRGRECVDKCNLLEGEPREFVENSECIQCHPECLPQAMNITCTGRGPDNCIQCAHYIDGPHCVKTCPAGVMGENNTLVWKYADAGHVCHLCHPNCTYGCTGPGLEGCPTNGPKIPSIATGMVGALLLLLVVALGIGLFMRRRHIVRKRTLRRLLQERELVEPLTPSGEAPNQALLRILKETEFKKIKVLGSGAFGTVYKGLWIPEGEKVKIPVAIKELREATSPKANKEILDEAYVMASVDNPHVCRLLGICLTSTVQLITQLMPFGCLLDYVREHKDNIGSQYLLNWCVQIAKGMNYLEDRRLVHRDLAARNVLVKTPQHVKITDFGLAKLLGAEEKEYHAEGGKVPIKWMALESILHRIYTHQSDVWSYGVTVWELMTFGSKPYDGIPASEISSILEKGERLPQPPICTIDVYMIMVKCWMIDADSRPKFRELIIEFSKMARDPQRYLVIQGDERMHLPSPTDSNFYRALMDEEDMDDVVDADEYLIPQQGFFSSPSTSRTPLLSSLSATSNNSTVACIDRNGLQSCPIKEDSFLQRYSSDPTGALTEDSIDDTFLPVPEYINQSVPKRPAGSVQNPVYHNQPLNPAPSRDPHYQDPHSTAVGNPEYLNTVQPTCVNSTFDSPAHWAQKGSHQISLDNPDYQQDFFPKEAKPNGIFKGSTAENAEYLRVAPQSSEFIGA
T3 sequence (P00533 25-1210): as above
Sequence of CtermHisTag-mEGFR Triple Mutant - C797S, L858R, T790M (P00533 25-1210 T790M/C797S/L858R): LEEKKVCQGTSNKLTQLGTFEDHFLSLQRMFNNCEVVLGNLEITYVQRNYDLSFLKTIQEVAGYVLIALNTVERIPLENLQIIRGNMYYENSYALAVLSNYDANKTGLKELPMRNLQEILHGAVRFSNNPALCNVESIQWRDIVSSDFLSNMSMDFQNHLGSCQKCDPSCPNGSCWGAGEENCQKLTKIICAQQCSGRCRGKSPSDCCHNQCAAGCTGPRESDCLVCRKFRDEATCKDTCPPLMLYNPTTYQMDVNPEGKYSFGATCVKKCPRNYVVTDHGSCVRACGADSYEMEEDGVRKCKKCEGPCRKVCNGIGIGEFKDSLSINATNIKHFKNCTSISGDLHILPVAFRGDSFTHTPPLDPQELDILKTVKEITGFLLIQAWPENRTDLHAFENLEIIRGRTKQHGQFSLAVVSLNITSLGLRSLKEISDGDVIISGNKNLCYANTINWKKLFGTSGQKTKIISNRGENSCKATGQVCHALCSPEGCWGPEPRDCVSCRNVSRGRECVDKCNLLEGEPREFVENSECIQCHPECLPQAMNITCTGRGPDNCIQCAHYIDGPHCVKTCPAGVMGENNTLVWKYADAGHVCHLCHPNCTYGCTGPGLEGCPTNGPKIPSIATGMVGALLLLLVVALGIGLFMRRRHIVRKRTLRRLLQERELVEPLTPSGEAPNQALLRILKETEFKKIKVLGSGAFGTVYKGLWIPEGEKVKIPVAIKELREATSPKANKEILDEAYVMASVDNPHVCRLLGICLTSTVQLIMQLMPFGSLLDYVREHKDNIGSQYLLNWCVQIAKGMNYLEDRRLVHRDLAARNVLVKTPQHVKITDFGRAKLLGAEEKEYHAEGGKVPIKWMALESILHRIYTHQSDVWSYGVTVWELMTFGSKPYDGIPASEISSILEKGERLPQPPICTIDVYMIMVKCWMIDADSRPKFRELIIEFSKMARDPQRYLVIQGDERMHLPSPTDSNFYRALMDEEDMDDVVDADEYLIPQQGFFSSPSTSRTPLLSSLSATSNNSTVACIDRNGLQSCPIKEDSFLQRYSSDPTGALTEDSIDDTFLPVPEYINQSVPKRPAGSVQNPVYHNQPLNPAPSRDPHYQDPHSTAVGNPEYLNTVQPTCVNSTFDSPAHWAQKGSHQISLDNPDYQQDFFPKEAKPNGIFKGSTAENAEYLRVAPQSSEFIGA
T2 sequence (P00533 25-1210 T790M/C797S/L858R): as above

What is called IC50 is the point on the concentration scale where inhibition reaches its midpoint. Regarding `C#Cc1cc(OC)nc2nc(Nc3ccc(N4CCN(C)CC4)cc3)ncc12` [Example 3, 5-ethynyl-7-methoxy-N-(4-(4-methylDiDerazin-1-yl)phenyl)vrido[2,3-d]pyrimidin-2-amine], the IC50 in assay [1] was 100 to 1000 nM; in assay [2], above 10000 nM; in assay [3], 500 to 1000 nM; in assay [4], 1000 to 3000 nM; in assay [5] it was above 3000 nM.
For the compound `C#Cc1cc(OC2CCC2)nc2nc(Nc3ccc(N4CCN(C)CC4)cc3)ncc12` [Example 18, 7-cyclobutoxy-5-ethynyl-N-[4-(4-methylpiperazin-1-yl)phenyl]pyrido[2,3-d]pyrimidin-2-amine], the IC50 in assay [1] is 20 to 100 nM; in assay [2], above 10000 nM; in assay [3] it was above 3000 nM; in assay [4] it was above 3000 nM; in assay [5], above 3000 nM.
For the compound `C#Cc1cc(NC(=O)NC2CCCC2)nc2nc(Nc3cccc(CN4CCC(CS(C)(=O)=O)C4)c3)ncc12` (centres unmarked) [Example 86], the IC50 was 20 to 100 nM in assay [1]; below 1000 nM in assay [2]; above 3000 nM in assay [3]; 500 to 1000 nM in assay [4]; 1000 to 3000 nM in assay [5].
As to `C#Cc1cc(NC(=O)NC2COC2)nc2nc(Nc3ccc(N4CCN(C)CC4)cc3)ncc12` [Example 43, 1-(5-ethynyl-2-{[4-(4-methylpiperazin-1-yl)phenyl]amino}pyrido[2,3-d]pyrimidin-7-yl)-3-(oxetan-3-ylI)urea], the IC50 was below 20 nM in assay [1]; below 1000 nM in assay [2]; below 500 nM in assay [3]; below 500 nM in assay [4]; above 3000 nM in assay [5].
Regarding `C#Cc1cc(Oc2ccccc2)nc2nc(Nc3ccc(N4CCN(C)CC4)cc3)ncc12` [Example 12, 5-ethynyl-N-[4-(4-methylpiperazin-1-yl)phenyl]-7-phenoxypyrido[2,3-d]pyrimidin-2-amine], the IC50 in assay [1] was 100 to 1000 nM; in assay [2], above 10000 nM; in assay [3] it was above 3000 nM; in assay [4] it was above 3000 nM; in assay [5], above 3000 nM.
As to `C#Cc1cc(OC)nc2nc(Nc3cccc(CN(C)C4CCC4)c3)ncc12` [Example 4, N-(3-{[cyclobutyl(methyl)amino]methyl}phenyl)-5-ethynyl-7-methoxypyrido[2,3-d]pyrimidin-2-amine], the IC50 is 100 to 1000 nM in assay [1]; above 10000 nM in assay [2]; above 3000 nM in assay [3]; above 3000 nM in assay [4]; above 3000 nM in assay [5].
As for `C#Cc1cc(OC)nc2nc(Nc3ccc(N4CCN(C)CC4)c(NCc4ccn(C)n4)c3)ncc12` [Example 11, N^1-{5-ethynyl-7-methoxypyrido[2,3-d]pyrimidin-2-yl}-4-(4-methylpiperazin-1-yl)-N^3-[(1-methylpyrazol-3-yl)methyl]benzene-1,3-diamine], the IC50 in assay [1] was 100 to 1000 nM; in assay [2], above 10000 nM; in assay [3] it was above 3000 nM; in assay [4] it was above 3000 nM; in assay [5], above 3000 nM.
For `C#Cc1cc(NC(=O)CCc2ccccc2)nc2nc(Nc3ccc(N4CCN(C)CC4)cc3)ncc12` [Example 32, N-(5-ethynyl-2-{[4-(4-methylpiperazin-1-yl)phenyl]amino}pyrido[2,3-d]pyrimidin-7-yl)-3-phenylpropanamide], the IC50 in assay [1] is below 20 nM; in assay [2] it was 1000 to 10000 nM; in assay [3], 1000 to 3000 nM; in assay [4], 1000 to 3000 nM; in assay [5] it was above 3000 nM.
Turning to `C#Cc1cc(N2C(=O)OCC2COC)nc2nc(Nc3ccc(N4CCN(C)CC4)cc3)ncc12` (centres unmarked) [Example 116, 3-(5-Ethynyl-2-{[4-(4-methylpiperazin-1-yl)phenyl]amino}pyrido[2,3-d]pyrimidin-7-yl)-4-(methoxymethyl)-1,3-oxazolidin-2-one], the IC50 in assay [1] was below 20 nM; in assay [2] it was 1000 to 10000 nM; in assay [3], below 500 nM; in assay [4], 500 to 1000 nM; in assay [5], above 3000 nM.
Turning to `C#Cc1cc(N2C(=O)OCC2C2CCCC2)nc2nc(Nc3ccc(N4CCNCC4)cc3)ncc12` (centres unmarked) [Example 115, 4-Cyclopentyl-3-(5-ethynyl-2-{[4-(piperazin-1-yl)phenyl]amino}pyrido[2,3-d]pyrimidin-7-y0)-1,3-oxazolidin-2-one], the IC50 in assay [1] was below 20 nM; in assay [2], 1000 to 10000 nM; in assay [3], 500 to 1000 nM; in assay [4] it was above 3000 nM; in assay [5], above 3000 nM.
With `C#Cc1cc(N2C(=O)N(C)CC23CCCC3)nc2nc(Nc3ccc(N(C)C(C)=O)cc3)ncc12` [Example 105, N-{4-[(5-Ethynyl-7-{3-methyl-2-oxo-1,3-diazaspiro[4.4]nonan-1-yl}pyrido[2,3-d]pyrimidin-2-yl)amino]phenyl}-N-methylacetamide], the IC50 is 100 to 1000 nM in assay [1]; above 10000 nM in assay [2]; above 3000 nM in assay [3]; above 3000 nM in assay [4]; above 3000 nM in assay [5].
`C#Cc1cc(N2C(=O)NCC23CCCC3)nc2nc(Nc3ccc(N(C)C(C)=O)cc3)ncc12` [Example 93, N-{4-[(5-Ethynyl-7-{2-oxo-1,3-diazaspiro[4.4]nonan-1-yl}pyrido[2,3-d]pyrimidin-2-yl)amino]phenyl}-N-methylacetamide]: the IC50 in assay [1] is 20 to 100 nM; in assay [2] it was above 10000 nM; in assay [3] it was above 3000 nM; in assay [4], 1000 to 3000 nM; in assay [5], 1000 to 3000 nM.
In the case of `C#Cc1cc(N2CCCC2=O)nc2nc(Nc3ccc(N4CCN(C)CC4)cc3)ncc12` [Example 31, 1-(5-ethynyl-2-{[4-(4-methylpiperazin-1-yl)phenyl]amino}pyrido[2,3-d]pyrimidin-7-yl)pyrrolidin-2-one], the IC50 is below 20 nM in assay [1]; 1000 to 10000 nM in assay [2]; 1000 to 3000 nM in assay [3]; 1000 to 3000 nM in assay [4]; above 3000 nM in assay [5].
With `C#Cc1cc(NC(=O)c2ccccc2)nc2nc(Nc3ccc(N4CCN(C)CC4)cc3)ncc12` [Example 29, N-(5-ethynyl-2-{[4-(4-methylpiperazin-1-yl)phenyl]amino}pyrido[2,3-d]pyrimidin-7-yl)benzamide], the IC50 is 20 to 100 nM in assay [1]; 1000 to 10000 nM in assay [2]; above 3000 nM in assay [3]; above 3000 nM in assay [4]; above 3000 nM in assay [5].
Turning to `C#Cc1cc(N2C(=O)OC[C@@H]2C(C)C)nc2nc(Nc3ccc(N4CCN(C)CC4)cc3)ncc12` [Example 70, (4S)-3-(5-ethynyl-2-{[4-(4-methylpiperazin-1-yl)phenyl]amino}pyrido[2,3-d]pyrimidin-7-yl)-4-isopropyl-1,3-oxazolidin-2-one], the IC50 in assay [1] was below 20 nM; in assay [2] it was below 1000 nM; in assay [3] it was 500 to 1000 nM; in assay [4], above 3000 nM; in assay [5], 500 to 1000 nM.
As to `C#Cc1cc(N2C(=O)NC[C@@H]2C(C)C)nc2nc(Nc3ccc(N4CCN(C)CC4)cc3)ncc12` [Example 99, (5S)-1-(5-Ethynyl-2-{[4-(4-methylpiperazin-1-yl)phenyl]amino}pyrido[2,3-d]pyrimidin-7-yl)-5-isopropylmidazolidin-2-one], the IC50 was below 20 nM in assay [1]; below 1000 nM in assay [2]; below 500 nM in assay [3]; below 500 nM in assay [4]; above 3000 nM in assay [5].
Turning to `C#Cc1cc(NC(=O)NC2CCCC2)nc2nc(Nc3cccc(CN4CCC(CS(C)(=O)=O)CC4)c3)ncc12` [Example 87], the IC50 was 20 to 100 nM in assay [1]; below 1000 nM in assay [2]; above 3000 nM in assay [3]; below 500 nM in assay [4]; 1000 to 3000 nM in assay [5].
As to `C#Cc1cc(OCCc2ccccc2)nc2nc(Nc3ccc(N4CCN(C)CC4)cc3)ncc12` [Example 21, 5-ethynyl-N-[4-(4-methylpiperazin-1-yl)phenyl]-7-(2-phenylethoxy)pyrido[2,3-d]pyrimidin-2-amine], the IC50 in assay [1] was 100 to 1000 nM; in assay [2] it was above 10000 nM; in assay [3], above 3000 nM; in assay [4] it was above 3000 nM; in assay [5], above 3000 nM.
In the case of `C#Cc1cc(OCc2cscn2)nc2nc(Nc3ccc(N4CCN(C)CC4)cc3)ncc12` [Example 13, 5-ethynyl-N-[4-(4-methylpiperazin-1-yl)phenyl]-7-(1,3-thiazol-4-ylmethoxy)pyrido[2,3-d]pyrimidin-2-amine], the IC50 was 20 to 100 nM in assay [1]; above 10000 nM in assay [2]; 1000 to 3000 nM in assay [3]; above 3000 nM in assay [4]; above 3000 nM in assay [5].

For the origin of these results see patent US20260176265A1 (Cancer Research Technology Limited, priority 2022, published 2026).
